These results are taken from patent US11752188B2, “Compositions and methods for nutritional supplements” (DailyColors Health Inc., priority 2020, dated 2023).

SMILES strings stand for the structures. Where two headings read alike, the source gives them in different places.

The assay concerns the target T1, recombinant human CD73 (Homo sapiens, UniProt P21589).
T1 construct: purchased BPS Bioscience 71184 (enzyme); kit #72055
T1 sequence (P21589 27-549): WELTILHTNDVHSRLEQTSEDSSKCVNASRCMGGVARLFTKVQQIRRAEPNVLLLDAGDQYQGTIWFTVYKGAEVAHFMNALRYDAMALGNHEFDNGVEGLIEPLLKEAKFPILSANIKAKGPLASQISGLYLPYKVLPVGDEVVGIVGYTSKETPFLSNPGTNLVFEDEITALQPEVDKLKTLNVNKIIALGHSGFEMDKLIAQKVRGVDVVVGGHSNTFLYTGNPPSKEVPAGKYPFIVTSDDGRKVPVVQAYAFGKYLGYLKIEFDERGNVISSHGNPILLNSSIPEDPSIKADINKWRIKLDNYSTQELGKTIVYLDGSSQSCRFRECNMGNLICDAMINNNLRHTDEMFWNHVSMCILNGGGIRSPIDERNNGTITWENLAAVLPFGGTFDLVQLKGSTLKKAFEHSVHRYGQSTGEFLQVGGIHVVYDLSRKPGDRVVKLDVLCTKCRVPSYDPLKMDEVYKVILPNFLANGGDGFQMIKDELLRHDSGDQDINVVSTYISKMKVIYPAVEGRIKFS
The experiment in a line: CD73 in vitro enzymatic assay (colorimetric 630 nm). The conditions noted are these: TABLE 89. In kind it is biochemical. The source says:
Here, D5 is the Yellow Blend, D9 is the Purple Blend, D21 is the Green Blend, D13 is the Red Blend, and D31 is CBD. As before, the red blend included Apple Extract, Pomegranate Extract, Tomato Powder, Beet; the green blend included Olive Extract, Rosemary Extract, Green Coffee Bean Extract, Kale; the orange/yellow blend included Onion Extract, Ginger Extract, Grapefruit Extract, Carrot; and the purple/blue blend included Grape, Blueberry Extract, Currant, Elderberry.
Assay Conditions: In general, all assays points were done by following the CD39 and CD73 Inhibitor Screening Assay Kit protocol (BPS Bioscience, #79278 and 72055, respectively). The CD73 enzymatic reactions were conducted in duplicate at room temperature for 30 minutes in a 50 μl mixture containing assay buffer, […], CD73 enzymes, and the test compound. Test compounds were preincubated with the enzyme for 30 minutes. Reactions were started by addition of the substrate. The 50 μl reactions were carried out in a 96-well transparent plate. After enzymatic reactions, 100 μl of Colorimetric Detection Reagent was added to the reaction mix. After a 15 minutes incubation, absorbance was measured using a Tecan plate reader at 630 nm.
Data Analysis: Enzyme activity assays were performed in duplicates at each concentration. The Absorbance intensity data were analyzed and compared. In the absence of the compound, the intensity in each data set was defined as 100% (Ce) activity. In the absence of enzyme, the intensity in each data set was defined as 0% (C0) activity.

Regarding `O=c1c(O)c(-c2ccc(O)c(O)c2)oc2cc(O)cc(O)c12` [Quercetin], the “Net absorbance Rep. 1” value is, setting by setting: (1 μM) 0.40; (10 μM) 0.23; (100 μM) 0.12. Further, the “Net absorbance Rep. 2” value is, setting by setting: (1 μM) 0.36; (10 μM) 0.25; (100 μM) 0.08. Also, where the note is “1 μM”, the inhibition at 1 µM was found to be 13%. Moreover, the activity at 1 µM runs as follows: (1 μM, read-out: Activity (%) Rep. 1) 92%; (1 μM, read-out: Activity (%) Rep. 2) 82%. For the same compound, the inhibition at 10 µM (10 μM) came out at 44%. The activity at 10 µM runs as follows: (10 μM, read-out: Activity (%) Rep. 1) 53%; (10 μM, read-out: Activity (%) Rep. 2) 58%. Also, for the setting “100 μM”, the inhibition at 100 µM turned out to be 78%. Besides, the activity at 100 µM (100 μM, read-out: Activity (%) Rep. 1) was found to be 27% and the activity at 100 µM (100 μM, read-out: Activity (%) Rep. 2) is 17%.

A word on the inhibition: it is the relative decrease from the control value, in per cent.
